Columns and labels:
Format in all cases: in vivo, maize
acs6/acs6 plants [1] = test: chlorophyll a+b level in leaves after 7 day dark treatment
Method: (§1) FIG. 20 Panel A illustrates chlorophyll data, Panel B soluble protein, and Panel C Rubisco expression. The level of chlorophyll a+b (Panel A) and soluble protein (Panel B) was measured in the third oldest leaf (Leaf 3), sixth oldest leaf (Leaf 6), and ninth oldest leaf (Leaf 9) of adult wild-type (i.e., ACS6/ACS6), acs21acs2, and acs61acs6 plants following dark treatment for 7 days. Plants were watered daily. Additional acs61acs6 plants were watered daily with 100 μM ACC during the treatment. acs61acs6 leaves watered with 100 μM ACC but kept unsheathed are also shown. The average and standard deviation of leaves from three individual plants is shown. (Panel C) Western analysis of the same leaves was performed using rice anti-Rubisco antiserum. Soluble protein from leaf samples of equal fresh weight was used.
Leaves were frozen in liquid nitrogen and ground to a fine powder. Samples of approximately 0.1 g were removed to a 1.5 ml tube and weighed. Chlorophyll was extracted 5× with 1 ml (or 0.8 ml) of 80% acetone. Individual extractions were combined and the final volume adjusted to 10 ml (or 15 ml) with additional 80% acetone. Chlorophyll content (a+b) was determined spectrophotometrically according to the methods of Wellburn (1994). […]

acs6/acs6 plants [2] = test: dark-induced senescence of sheathed leaves, complementation of the acs6 mutant by exogenous ACC
Method: To examine if exogenous ACC could complement the acs6 mutant and reverse its staygreen phenotype, the third oldest, sixth, and ninth leaf from ACS6/ACS6, acs2/acs2, and acs6/acs6 plants were subject to dark-induced senescence at 20 DAP by covering them with sheaths for 7 days. All leaves were fully green at the onset of the experiment and remained attached to the plant. acs6/acs6 plants were watered daily with water or 100 μM ACC for 7 days. Following 7 days, dark-induced senescence had initiated in wild-type (i.e., ASC6/ASC6) leaves although it had not progressed to the extent observed following a 2 week dark treatment. […] Dark-induced senescence was also observed in leaf 3 of the acs2 homozygous mutant although it was less pronounced than that observed in the corresponding wild-type leaves.

acs6/acs6 plants [3] = test: total soluble leaf protein after 7 day dark treatment; settings: watered with 100 μM ACC
Method: as §1
For total protein isolation, leaves of B73 or mutant plants were collected at the indicated times, quick-frozen in liquid nitrogen and ground to a fine powder. […] Samples were centrifuged 10 min at 10,000 rpm, the supernatant removed to a new tube and the concentration determined spectrophotometrically according to the methods of Bradford (1976). See, Bradford M M (1976) A rapid and sensitive method for the quantitation of microgram quantities of protein utilizing the principle of protein-dye binding. […]

acs6/acs6 plants [4] = test: Western analysis for Rubisco in leaves
Method: as §1
B73 leaves were collected at the indicated times and ground in liquid nitrogen to a fine powder. One ml of extraction buffer [20 mM HEPES (pH 7.6), 100 mM KCl, 10% glycerol, 1 mM PMSF] was added to approximately 0.1 g frozen powder and mixed thoroughly. Cell debris was pelleted by centrifugation at 10,000 rpm for 10 min and the protein concentration determined as described (Bradford, 1976). […] The blots were washed twice with TPBS and the signal detected typically between 1 to 15 min using chemiluminescence (Amersham Corp). […]

In the case of `NC1(C(=O)O)CC1` [ACC, 1-aminocyclopropane-1-carboxylic acid], the “retention of chlorophyll a+b compared with wild-type leaves” value (acs6/acs6 plants [1]; acs6 leaves, 7 day dark treatment, watered with 100 μM ACC) is reported as “did not do so when watered with 100 μM ACC”, the loss of chlorophyll (acs6/acs6 plants [1]; unsheathed leaves of acs6 mutants watered with ACC) is reported as “chlorophyll was not lost” and the “senescence of leaves that were not sheathed (visual)” value (acs6/acs6 plants [2]; acs6 leaves not sheathed, plants watered daily with 100 μM ACC for 7 days) is reported as “did not affect acs6 leaves that were not sheathed”. For the same compound, the “dark-induced senescence (visual)” value (acs6/acs6 plants [2]; acs6 leaves sheathed 7 days at 20 DAP, plants watered daily with 100 μM ACC) was “dark-induced senescence similar to that of wild-type leaves was observed”, the “retention of total soluble leaf protein compared with wild-type leaves” value (acs6/acs6 plants [3]) was “did not do so when watered with 100 μM ACC” and the “loss of Rubisco” value (acs6/acs6 plants [4]; ACC-treated acs6 leaves that remained in the light) was “No loss of Rubisco was observed”. The “loss of Rubisco” value (acs6/acs6 plants [4]; dark-treated acs6 leaves watered with 100 μM ACC) was “lost an amount of Rubisco similar to that of dark-treated B73 leaves”.

Reference: patent US8779235B2, “Engineering single-gene-controlled staygreen potential into plants” (Pioneer Hi-Bred International, Inc., priority 2003, dated 2014)
